The source of these data is BindingDB's records for doi:10.1021/jm300535s (Leipzig University, 2012).

For the experiment, the target named is Neuropeptide FF receptor 1 (Homo sapiens, UniProt Q9GZQ6). Put plainly: Competitive antagonist activity at human NPFF1 receptor expressed in COS1 cells assessed as inhibition of NPVF-induced [3H]inositol phosphate accumulation after 2 hrs by liquid scintillation counting.

Structures are written as SMILES.

Neuropeptide FF receptor 1, sequence (Q9GZQ6 whole entry): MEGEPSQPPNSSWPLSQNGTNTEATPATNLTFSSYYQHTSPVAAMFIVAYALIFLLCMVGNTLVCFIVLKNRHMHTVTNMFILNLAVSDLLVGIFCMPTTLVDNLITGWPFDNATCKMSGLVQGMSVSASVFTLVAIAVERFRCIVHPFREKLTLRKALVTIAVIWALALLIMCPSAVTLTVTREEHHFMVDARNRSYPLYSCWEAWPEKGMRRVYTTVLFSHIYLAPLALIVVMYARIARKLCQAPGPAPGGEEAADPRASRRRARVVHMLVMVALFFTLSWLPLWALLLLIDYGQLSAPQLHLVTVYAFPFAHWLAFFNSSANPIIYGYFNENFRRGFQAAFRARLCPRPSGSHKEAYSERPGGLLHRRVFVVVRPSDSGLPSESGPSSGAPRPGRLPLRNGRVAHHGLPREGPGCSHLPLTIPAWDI

In general, Kd refers to the concentration at which binding is half-saturated. In the case of `NC(N)=NN=CC12CC3CC(CC(C3)C1)C2`, the Kd was 41.7 nM.
